Laboratory results published in US20170202932A1, “METHODS FOR INHIBITING NEURON APOPTOSIS AND NECROSIS” (NEWSOUTH INNOVATIONS PTY LIMITED, priority 2012, published 2017).

What was measured:
[1] = biological target: T1, recombinant mouse TRPC3b channels (Mus musculus, UniProt Q9QZC1, R524G); assay: Fluo-4 Ca2+ imaging of DHPG-activated Ca2+ entry, HEK293 cells co-expressing TRPC3b and mGluR1; format: cell-based; conditions: genistein 200 μM pre-application, n=6, without genistein 1.56±0.0713
T1 construct: Full length mouse TRPC3 transcripts were obtained by PCR; expressed in transfected cells; host or cells: HEK293 cells stably expressing TRPC3b, additionally transfected with mGluR1-eYFP cDNA
T1 sequence (Q9QZC1 75-910 R524G): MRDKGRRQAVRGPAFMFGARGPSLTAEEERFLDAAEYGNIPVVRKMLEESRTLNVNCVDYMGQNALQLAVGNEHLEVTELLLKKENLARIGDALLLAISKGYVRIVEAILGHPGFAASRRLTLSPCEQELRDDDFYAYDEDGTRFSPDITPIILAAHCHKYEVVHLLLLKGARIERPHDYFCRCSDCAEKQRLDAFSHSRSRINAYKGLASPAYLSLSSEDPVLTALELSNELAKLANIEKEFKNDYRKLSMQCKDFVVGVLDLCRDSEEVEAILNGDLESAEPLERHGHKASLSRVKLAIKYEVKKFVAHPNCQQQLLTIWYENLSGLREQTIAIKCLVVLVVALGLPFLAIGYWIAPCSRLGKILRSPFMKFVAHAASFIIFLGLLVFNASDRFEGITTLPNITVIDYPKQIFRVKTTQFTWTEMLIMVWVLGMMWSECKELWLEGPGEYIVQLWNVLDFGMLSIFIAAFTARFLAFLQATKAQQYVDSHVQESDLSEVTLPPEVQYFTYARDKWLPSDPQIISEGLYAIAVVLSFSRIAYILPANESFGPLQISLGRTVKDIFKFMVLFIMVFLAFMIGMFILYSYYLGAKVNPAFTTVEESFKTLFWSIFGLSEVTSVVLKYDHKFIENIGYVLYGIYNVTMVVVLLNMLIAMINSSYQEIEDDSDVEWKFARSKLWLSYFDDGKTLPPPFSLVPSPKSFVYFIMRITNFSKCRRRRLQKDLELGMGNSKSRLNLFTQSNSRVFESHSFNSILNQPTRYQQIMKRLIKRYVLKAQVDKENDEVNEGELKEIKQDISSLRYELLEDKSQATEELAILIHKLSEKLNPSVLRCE
Procedure: (§1) The TRPC3-mediated Ca^2+ entry through two distinct activation pathways was assessed by microfluorometric Ca^2+ imaging: i) Ca^2+ entry via the M3 receptor-PLCB-DAG pathway endogenous to HEK293 cells, using Indo-1 as a Ca^2+ indicator; and ii) Ca^2+ entry via mGluR1-PLCB-DAG through co-expression of the mGluR1, using Fluo-4 as a Ca^2+ indicator.
(§2) Cells were grown in DMEM media on 18 mm circular coverslips coated with poly-D-lysine (25 μg/ml) and collagen (25 μg/ml) at 1:1 ratio. The cells were washed with HPSS. The coverslips were then incubated with HPSS and 0.1% pluronic acid, along with either 1 μM Indo-1AM or Fluo-4AM Ca^2+ indicator (Invitrogen, U.S.A.) for an hour prior to the experiment. […]
(§3) For Fluo-4 experiments, the cells were mounted on an inverted microscope (DMIL, Leica) with a 20× 0.4NA objective (Leica HCX PL Fluotar), and illuminated with a mercury lamp using a GFP filter (part no. 11504164; excitation 470/40 nm, dichroic 500 nm, emission 525/50 nm) every 5 seconds (Andor iXon+ 885 EMCCD Camera, Ireland) with a gated shutter (Ludl Electronic Products, U.S.A.), controlled via Andor IQ (v1.8.1) software. The images were then analysed using Image J software (NIH, U.S.A.) with individual regions of interest (ROIs) identified for HEK293 cells responding to M3 or mGluR1 agonists with increased Ca^2+ signal. […]

[2] = biological target: T2, recombinant mouse TRPC3c channels (Mus musculus, UniProt Q9QZC1, DEL811-838); assay: Fluo-4 Ca2+ imaging of DHPG-activated Ca2+ entry, HEK293 cells co-expressing TRPC3c and mGluR1; format: cell-based; conditions: genistein 200 μM pre-application, n=6, without genistein 2.71±0.217
T2 construct: expressed in transfected cells; host or cells: HEK293 cells, stably transfected (pIRES-DsRed2 vector)
T2 sequence (Q9QZC1 with tags, fused parts or gaps DEL811-838): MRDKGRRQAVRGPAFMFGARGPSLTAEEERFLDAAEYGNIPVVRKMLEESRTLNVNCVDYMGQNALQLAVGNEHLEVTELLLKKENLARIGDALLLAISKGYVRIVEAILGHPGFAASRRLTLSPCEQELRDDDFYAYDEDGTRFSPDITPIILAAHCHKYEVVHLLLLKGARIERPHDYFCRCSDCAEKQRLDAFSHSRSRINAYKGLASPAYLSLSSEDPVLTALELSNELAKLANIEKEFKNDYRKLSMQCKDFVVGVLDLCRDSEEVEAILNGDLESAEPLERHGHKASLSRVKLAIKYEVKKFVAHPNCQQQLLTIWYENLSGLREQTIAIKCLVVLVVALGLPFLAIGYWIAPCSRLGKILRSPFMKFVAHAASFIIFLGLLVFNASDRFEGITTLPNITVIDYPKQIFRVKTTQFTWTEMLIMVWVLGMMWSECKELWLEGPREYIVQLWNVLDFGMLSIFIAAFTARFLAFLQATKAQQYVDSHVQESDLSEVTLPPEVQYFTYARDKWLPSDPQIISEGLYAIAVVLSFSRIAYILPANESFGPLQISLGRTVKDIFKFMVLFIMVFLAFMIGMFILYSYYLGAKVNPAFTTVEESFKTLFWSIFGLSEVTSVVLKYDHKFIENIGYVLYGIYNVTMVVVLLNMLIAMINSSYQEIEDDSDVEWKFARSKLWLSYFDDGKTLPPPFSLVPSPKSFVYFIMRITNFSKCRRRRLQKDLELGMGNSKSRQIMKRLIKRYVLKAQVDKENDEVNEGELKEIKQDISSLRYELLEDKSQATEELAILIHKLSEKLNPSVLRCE
Procedure: as §1, §2, §3

src tyrosine kinase = src tyrosine kinase (Homo sapiens, UniProt P12931); conditions: cited from earlier work
Sequence of src tyrosine kinase (P12931 whole entry): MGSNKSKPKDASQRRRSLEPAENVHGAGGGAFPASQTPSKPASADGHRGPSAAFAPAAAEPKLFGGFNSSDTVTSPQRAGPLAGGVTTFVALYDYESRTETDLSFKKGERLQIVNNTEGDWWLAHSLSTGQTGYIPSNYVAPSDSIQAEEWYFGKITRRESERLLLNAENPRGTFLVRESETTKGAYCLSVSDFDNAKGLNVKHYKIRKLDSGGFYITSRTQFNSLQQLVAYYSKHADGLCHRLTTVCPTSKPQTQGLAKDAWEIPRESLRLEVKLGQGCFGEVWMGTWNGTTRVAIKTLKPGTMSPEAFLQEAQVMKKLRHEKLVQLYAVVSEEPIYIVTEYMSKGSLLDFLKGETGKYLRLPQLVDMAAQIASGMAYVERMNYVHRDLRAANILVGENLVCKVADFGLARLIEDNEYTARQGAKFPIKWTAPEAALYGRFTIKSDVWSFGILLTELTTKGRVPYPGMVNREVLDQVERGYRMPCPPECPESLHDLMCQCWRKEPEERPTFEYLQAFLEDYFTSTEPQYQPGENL

Fluo-4 fluorescence F/F0 (TRPC3-mediated Ca2+ entry after DHPG) [1]: 1.031±0.0144 | Fluo-4 fluorescence F/F0 (TRPC3-mediated Ca2+ entry after DHPG) [2]: 0.876±0.0621
SMILES: O=c1c(-c2ccc(O)cc2)coc2cc(O)cc(O)c12 [genistein, 4′, 5,7-trihydroxyisoflavone]
src tyrosine kinase-mediated phosphorylation of TRPC3 (src tyrosine kinase): inhibit
